Results as given in patent US20260217691A1, “FOXM1 INHIBITORS AND THEIR USE IN TREATING CANCERS” (THE BOARD OF TRUSTEES OF THE UNIVERSITY OF ILLINOIS, priority 2022, published 2026).

What was measured:
FOXM1 = target: T1, FOXM1 (Homo sapiens, UniProt Q08050); assay: FOXM1 protein levels by immunoblotting in leukemia/AML cell lines; format: cell-based; set-up: Total protein samples obtain from treated cells were analyzed for FOXM1 protein levels via immunoblotting; endogenous in cells; host or cells: KG-1, HL-60, K562, THP-1 leukemia cell lines
T1 sequence (Q08050 1-763): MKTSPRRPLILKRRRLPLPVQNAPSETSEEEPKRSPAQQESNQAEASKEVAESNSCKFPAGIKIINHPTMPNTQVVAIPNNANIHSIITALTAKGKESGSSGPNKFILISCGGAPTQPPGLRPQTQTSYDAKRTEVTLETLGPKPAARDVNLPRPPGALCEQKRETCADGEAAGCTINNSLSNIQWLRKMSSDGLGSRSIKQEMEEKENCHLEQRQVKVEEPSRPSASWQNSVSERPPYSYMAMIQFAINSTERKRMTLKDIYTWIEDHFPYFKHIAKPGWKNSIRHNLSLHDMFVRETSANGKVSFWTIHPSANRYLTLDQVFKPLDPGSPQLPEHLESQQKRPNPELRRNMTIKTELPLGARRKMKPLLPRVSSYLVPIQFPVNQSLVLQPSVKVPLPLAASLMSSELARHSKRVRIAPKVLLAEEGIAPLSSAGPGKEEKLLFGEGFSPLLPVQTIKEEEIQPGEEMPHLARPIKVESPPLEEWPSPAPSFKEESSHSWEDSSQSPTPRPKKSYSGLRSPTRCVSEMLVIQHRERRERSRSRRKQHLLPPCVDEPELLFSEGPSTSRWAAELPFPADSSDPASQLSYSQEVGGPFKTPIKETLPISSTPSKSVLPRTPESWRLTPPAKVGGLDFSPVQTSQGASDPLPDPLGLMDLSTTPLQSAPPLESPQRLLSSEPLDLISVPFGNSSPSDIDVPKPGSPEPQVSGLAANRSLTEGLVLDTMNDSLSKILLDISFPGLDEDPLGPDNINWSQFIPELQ
Protocol: [a] Leukemia cells, KG-1, HL-60 and K562 were treated with increasing concentrations of STL427944 for 24 hrs. […] [b] THP1 and KG-1 cells were treated with indicated concentrations of venetoclax and STL427944 alone or in combination for 24 hrs. [c] KG-1 and K562 cells were treated with indicated concentrations of cytarabine and STL427944 alone or in combination for 24 hrs.
FIG. 8. STL427944 treatment of human leukemia cell lines suppress FOXM1 protein expression. (a) STL427944 treatment of human leukemia cell lines inhibit FOXM1 protein expression and sensitize cells to venetoclax treatment. […] (b) Stable shRNA-mediated FOXM1 knockdown prominently sensitizes KG-1 cells to cytotoxic effect of venetoclax. (c, d) combined treatment with STL427944 and venetoclax suppresses FOXM1 in KG-1 and THP-1 cells and synergistically promotes cytotoxic effects similarly to FOXM1 knockdown. Total protein was isolated from cells immediately after the treatment and analyzed via immunoblotting with FOXM1 antibodies). Apoptosis induction was estimated based on caspase-3 cleavage.
FIGS. 9A and 9B: Novel FOXM1 inhibitor STL001 sensitizes Leukemia cells to chemotherapy agents. [a] Structural formula of novel FOXM1 inhibitor STL001. [b] Leukemia cells, KG-1, HL-60, and K562 were treated with increasing concentrations of STL001 for 24 hrs. […] [c] KG-1 cells were treated with indicated concentrations of Laptomycin B, Chloroquine, and STL001 for 24 hrs. […] [d] KG-1, HL-60, and K562 cells were treated with indicated concentrations of venetoclax and STL001 alone or in combination for 24 hrs. [e] KG-1, HL-60, and K562 cells were treated with indicated concentrations of cytarabine and STL alone or in combination for 24 hrs.
FIGS. 13A-13H STL001 is a novel FOXM1 inhibitor that sensitizes leukemia cells to standard cytotoxic and bcl2 inhibitor therapies. FIG. 13A AML cell line KG-1 treated with precursor compound STL427944. FIG. 3B AML cell lines KG-1, HL-60, and K562 were treated with increasing concentrations of STL001 for 24 h. Total protein samples obtained from treated cells were analyzed for FOXM1 protein levels using immunoblotting; β-actin was used as the internal loading control. FIG. 13C KG-1, HL-60, and K562 cells were treated with indicated concentrations of venetoclax and STL001 alone or in combination for 24 h. FIG. 13D KG-1, HL-60, and K562 cells were treated with indicated concentrations of cytarabine and STL001 alone or in combination for 24 h. […] FIG. 13E KG-1 cells were treated with indicated concentrations of Leptomycin B, Chloroquine, and STL001 for 24 h. Total protein samples obtained from treated cells were analyzed for FOXM1 protein levels via immunoblotting; β-actin was used as an internal loading control. FIG. 13F KG-1 cell lines with shRNA knockdown of FOXM1 were treated with venetoclax and STL001 and compared to parental cells. FIG. 13G Real-time PCR-based expression profiling for canonical FOXM1 target genes was performed on primary AML mononuclear cells (n=5) treated ex vivo with STL001 5 μM for 24 h. Mean and standard error of the delta Ct for DMSO or treatment group are plotted for each gene. P-value is estimated by two-tailed paired t-test. Asterisks denote P<0.05. FIG. 13H Treatment of peripheral blood mononuclear cells with STL001 for 24 h followed by immunohistochemistry for FOXM1. Slides were scanned on an Aperio AT2 brightfield scanner and images were analyzed using HALO 2.0 software. Hematoxylin counterstain was used to segment nuclei within the ROIs and to establish an accurate cell count. Percent cells with nuclear FOXM1 expression compared between DMSO and STL001 treated cells. P-value is based on one-tailed paired t-test.

OVCAR-8, ES-2 cells = assay: Chemosensitization (caspase-3 cleavage) of ovarian cancer cells to doxorubicin; format: cell-based, human
Protocol: (§1) FIG. 16. […] (A) Ovarian cancer (OVCAR-8 and ES-2) cells were treated with indicated concentrations of Doxorubicin (Doxo) alone or in combination with STL001 for 24 hrs. […] (C) colon cancer (HCT-116 and FET) cells were treated with indicated concentrations of 5′FU alone or in combination with STL001 for 24 hrs.

[1] = tested on: HCT-116 and HCT-FET cells; assay: Chemosensitization (caspase-3 cleavage) of colorectal cancer cells to 5′FU; format: cell-based, human
Protocol: as §1

[2] = tested on: KG-1, HL-60, K562, THP-1 cells; format: cell-based
[3] = KG-1, HL-60 and K562 cells, 24 h

O=C(Oc1cccc(-c2ccn(-c3nc(Nc4ccccc4)nc(N4CCOCC4)n3)n2)c1)c1ccco1 [STL001] was tested, and the “concentration suppressing FOXM1” value (FOXM1; AML cell lines) was 0.5 µM, the FOXM1 localization (FOXM1; AML cells) was “localizes FOXM1 to the cytoplasm” and the “lowest concentration with dose-dependent inhibition of FOXM1 protein expression” value (FOXM1; KG-1, HL-60, K562, 24 h) was 500 nM. The “improvement in efficiency to suppress FOXM1 / increased potency as FOXM1 inhibitor versus STL427944” value (FOXM1; estimated, relative to STL427944) was “up to 50 fold”, the FOXM1 protein levels (FOXM1; leukemia cell lines, increasing concentrations, 24 h) was “dose-dependent inhibition of FOXM1 protein expression” and the “cytotoxic effects as a single agent” value (OVCAR-8, ES-2 cells) was “did not exert significant cytotoxic effects”. The “apoptotic cell death (caspase-3 cleavage) in combination with doxorubicin” value (OVCAR-8, ES-2 cells; 24 hrs) was “potent induction of apoptotic cell death”, the “sensitivity to cytotoxic effects of 5′FU in combination” value [1] was “significantly enhanced the sensitivity of colorectal cancer cells to cytotoxic effects of 5′FU therapy” and the cytotoxic action alone ([2]; AML cell lines, single agent) was “did not exert prominent cytotoxic action on its own”. For the same compound, the “apoptosis (caspase-3 cleavage) in combination with cytarabine” value [2, 3] was “potent induction of apoptosis”, the “apoptosis (caspase-3 cleavage) in combination with venetoclax” value [2, 3] was “potent induction of apoptosis” and the “treatment sensitization effect in cells with stable knockdown of FOXM1” value ([2]; KG-1 shFOXM1 cells, venetoclax) was “absent”.
